Several values for one entry are separate records, joined by “and”; a condition that tells them apart may be missing. Equal values may be shown once.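 Interpolation was linear, between the two tested concentrations surrounding the appropriate level; five concentrations were tested over 48 hours in 96-well plates. The concentration for 50% growth inhibition is given as GI50. TGI: total growth inhibition.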
Key:
Experiment in all cases: NCI tumour cell line growth inhibition, 48 h
SNB-75 CNS = system: SNB-75 CNS
HL-60(TB) leukemia = system: HL-60(TB) leukemia
U251 CNS = system: U251 CNS
M19-MEL melanoma = system: M19-MEL melanoma
OVCAR-5 ovarian = system: OVCAR-5 ovarian
HCT-15 colon = system: HCT-15 colon
XF 498 CNS = system: XF 498 CNS
SK-MEL-28 melanoma = system: SK-MEL-28 melanoma
K-562 leukemia = system: K-562 leukemia
SF-295 CNS = system: SF-295 CNS
SR leukemia = system: SR leukemia
COLO 205 colon = system: COLO 205 colon
SF-539 CNS = system: SF-539 CNS
SK-MEL-5 melanoma = system: SK-MEL-5 melanoma
SF-268 CNS = system: SF-268 CNS
DMS 114 small cell lung = system: DMS 114 small cell lung
SK-OV-3 ovarian = system: SK-OV-3 ovarian
HT29 colon = system: HT29 colon
HCT-116 colon = system: HCT-116 colon
HCC-2998 colon = system: HCC-2998 colon
NCI-H23 lung = system: NCI-H23 lung
786-0 renal = system: 786-0 renal
CAKI-1 renal = system: CAKI-1 renal
NCI-H226 lung = system: NCI-H226 lung
NCI-H460 lung = system: NCI-H460 lung
DLD-1 colon = system: DLD-1 colon
MALME-3M melanoma = system: MALME-3M melanoma
ACHN renal = system: ACHN renal
DMS 273 small cell lung = system: DMS 273 small cell lung
HOP-92 NSCLC = system: HOP-92 NSCLC
CCRF-CEM leukemia = system: CCRF-CEM leukemia
MOLT-4 leukemia = system: MOLT-4 leukemia
LOX IMVI melanoma = system: LOX IMVI melanoma
RPMI-8226 leukemia = system: RPMI-8226 leukemia
SNB-78 CNS = system: SNB-78 CNS
RXF 393 renal = system: RXF 393 renal
KM20L2 colon = system: KM20L2 colon
NCI-H522 lung = system: NCI-H522 lung
A498 renal = system: A498 renal
HOP-18 NSCLC = system: HOP-18 NSCLC
HOP-62 NSCLC = system: HOP-62 NSCLC
OVCAR-4 ovarian = system: OVCAR-4 ovarian
SW-620 colon = system: SW-620 colon
UO-31 renal = system: UO-31 renal
NCI/ADR-RES ovarian = system: NCI/ADR-RES ovarian
EKVX NSCLC = system: EKVX NSCLC
TK-10 renal = system: TK-10 renal
SN12C renal = system: SN12C renal
P388 leukemia = system: P388 leukemia
MCF7 breast = system: MCF7 breast
UACC-257 melanoma = system: UACC-257 melanoma
UACC-62 melanoma = system: UACC-62 melanoma
SN12K1 renal = system: SN12K1 renal
SK-MEL-2 melanoma = system: SK-MEL-2 melanoma
OVCAR-3 ovarian = system: OVCAR-3 ovarian
LXFL 529 NSCLC = system: LXFL 529 NSCLC
SNB-19 CNS = system: SNB-19 CNS
OVCAR-8 ovarian = system: OVCAR-8 ovarian
A549 NSCLC = system: A549 NSCLC
P388/ADR leukemia = system: P388/ADR leukemia
IGROV1 ovarian = system: IGROV1 ovarian
KM12 colon = system: KM12 colon

Structure (SMILES): COc1cccc2c1C(=O)c1c(O)c3c(c(O)c1C2=O)C[C@@](O)(C(C)O)C[C@@H]3OC1CC(N)C(O)C(C)O1 (some centres not stated)
- GI50 (SNB-75 CNS): 1710 nM and 1050 nM
- TGI (SNB-75 CNS): 6.25 µM and 4.31 µM
- TGI (HL-60(TB) leukemia): 1130 nM and 1290 nM
- GI50 (U251 CNS): 705 nM
- TGI (U251 CNS): 7.87 µM and 3.44 µM
- TGI (M19-MEL melanoma): 3.32 µM and 4.06 µM
- GI50 (OVCAR-5 ovarian): 3.69 µM
- TGI (OVCAR-5 ovarian): 9.41 µM and 19.7 µM
- GI50 (HCT-15 colon): 12.1 µM
- TGI (HCT-15 colon): > 100 µM
- GI50 (XF 498 CNS): 221 nM
- TGI (XF 498 CNS): 2870 nM and 1860 nM
- GI50 (SK-MEL-28 melanoma): 1930 nM
- TGI (SK-MEL-28 melanoma): 4.05 µM and 7.36 µM
- GI50 (K-562 leukemia): 2210 nM
- TGI (K-562 leukemia): 8.19 µM and 26.5 µM
- TGI (SF-295 CNS): 6.29 µM and 7.17 µM
- TGI (SR leukemia): 659 nM
- GI50 (COLO 205 colon): 894 nM
- TGI (COLO 205 colon): 4.95 µM and 10.5 µM
- GI50 (SF-539 CNS): 665 nM
- TGI (SF-539 CNS): 4.77 µM and 3.63 µM
- TGI (SK-MEL-5 melanoma): 2490 nM and 2530 nM
- TGI (SF-268 CNS): 5.52 µM and 6.43 µM
- GI50 (DMS 114 small cell lung): 255 nM
- TGI (DMS 114 small cell lung): 1480 nM and 1140 nM
- TGI (SK-OV-3 ovarian): 8.2 µM and 18.6 µM
- GI50 (HT29 colon): 2780 nM
- TGI (HT29 colon): 36.6 µM
- GI50 (HCT-116 colon): 1380 nM
- TGI (HCT-116 colon): 4.17 µM and 17.8 µM
- GI50 (HCC-2998 colon): 2260 nM
- TGI (HCC-2998 colon): 5.26 µM and 7.66 µM
- GI50 (NCI-H23 lung): 1270 nM
- TGI (NCI-H23 lung): 2.44 µM and 4.93 µM
- TGI (786-0 renal): 4.11 µM
- TGI (CAKI-1 renal): 3.16 µM and 3.53 µM
- GI50 (NCI-H226 lung): 808 nM
- TGI (NCI-H226 lung): 2390 nM and 3110 nM
- TGI (NCI-H460 lung): 2.29 µM and 6.95 µM
- GI50 (DLD-1 colon): 6.11 µM
- TGI (DLD-1 colon): > 100 µM
- GI50 (MALME-3M melanoma): 392 nM
- TGI (MALME-3M melanoma): 1720 nM and 1930 nM
- TGI (ACHN renal): 8.18 µM
- TGI (DMS 273 small cell lung): 7.24 µM and 6.65 µM
- GI50 (HOP-92 NSCLC): 231 nM
- TGI (HOP-92 NSCLC): 3370 nM and 2110 nM
- GI50 (CCRF-CEM leukemia): 254 nM
- TGI (CCRF-CEM leukemia): 1330 nM
- GI50 (MOLT-4 leukemia): 81.1 nM
- GI50 (LOX IMVI melanoma): 1290 nM
- TGI (LOX IMVI melanoma): 4.13 µM and 3.11 µM
- GI50 (RPMI-8226 leukemia): 289 nM and 502 nM
- TGI (RPMI-8226 leukemia): 2.53 µM and 13 µM
- TGI (SNB-78 CNS): 7.32 µM and 8.53 µM
- TGI (RXF 393 renal): 5.13 µM and 6.06 µM
- GI50 (KM20L2 colon): 4.52 µM
- TGI (KM20L2 colon): 42.9 µM
- GI50 (NCI-H522 lung): 228 nM
- TGI (NCI-H522 lung): 2340 nM and 1820 nM
- GI50 (A498 renal): 776 nM
- TGI (A498 renal): 8.09 µM and 4.62 µM
- GI50 (HOP-18 NSCLC): 4.96 µM and 1.13 µM
- TGI (HOP-18 NSCLC): 9.5 µM and 7.49 µM
- TGI (HOP-62 NSCLC): 4.3 µM and 4.42 µM
- GI50 (OVCAR-4 ovarian): 13.4 µM
- TGI (OVCAR-4 ovarian): 35.2 µM
- GI50 (SW-620 colon): 881 nM
- TGI (SW-620 colon): 8.28 µM and 21.4 µM
- TGI (UO-31 renal): 97.8 µM
- TGI (NCI/ADR-RES ovarian): > 100 µM
- GI50 (EKVX NSCLC): 1730 nM
- TGI (EKVX NSCLC): 4.91 µM and 9.53 µM
- TGI (TK-10 renal): 8.11 µM
- GI50 (SN12C renal): 1490 nM
- TGI (SN12C renal): 6.58 µM and 7.62 µM
- TGI (P388 leukemia): 1690 nM
- TGI (MCF7 breast): 42.5 µM
- GI50 (UACC-257 melanoma): 2410 nM
- TGI (UACC-257 melanoma): 4.2 µM and 9.17 µM
- TGI (UACC-62 melanoma): 3.01 µM and 3.29 µM
- TGI (SN12K1 renal): 2400 nM
- GI50 (SK-MEL-2 melanoma): 1590 nM
- TGI (SK-MEL-2 melanoma): 3.5 µM and 3.45 µM
- TGI (OVCAR-3 ovarian): 7.29 µM and 8.79 µM
- TGI (LXFL 529 NSCLC): 7.62 µM
- GI50 (SNB-19 CNS): 392 nM
- TGI (SNB-19 CNS): 7.81 µM and 5.57 µM
- GI50 (OVCAR-8 ovarian): 2390 nM
- TGI (OVCAR-8 ovarian): 5.43 µM and > 52.5 µM
- GI50 (A549 NSCLC): 1110 nM
- TGI (A549 NSCLC): 6.02 µM and 29 µM
- TGI (P388/ADR leukemia): > 100 µM
- TGI (IGROV1 ovarian): 9.22 µM and 18.4 µM
- GI50 (KM12 colon): 2750 nM
- TGI (KM12 colon): 9.34 µM and 14.3 µM

— PubChem BioAssay (NCI)
